Assay results: patent US20130039897A1, “COMPOSITIONS AND METHODS FOR REGULATING NEUTROPHIL MOVEMENT AND NEUTROPHIL NUMBERS IN A BODY REGION” (The Texas A&M University System, priority 2011, published 2013)

System: human neutrophils
Assay: Insall chamber assay with DPPIV enzyme inhibitors, with or without rDPPIV
Type: cell-based
Settings: FIG. 5; for chemorepulsion of neutrophils away from the source of rDPPIV: inhibitor added with rDPPIV, compared to rDPPIV alone; for attraction or repulsion of human neutrophils: inhibitor alone
Method: Cover slips were then washed twice with PBS, and neutrophils at approximately 5×10^6 cells/ml were allowed to adhere to the coverslip for 15 minutes at 37° C. Two concentric depressions and the separating bridge in an Insall chamber slide were filled with 2% (w/v) BSA-RPMI. The media was removed from the coverslips, which were then placed face down on the chamber. Media was then removed from the outer chamber and was replaced by rDPPIV alone, DPPIV inhibitor alone (Diprotin A, Enzo Life Sciences or DPPI 1 c hydrochloride, Tocris Bioscience (Bristol, UK)), rDPPIV plus DPPIV inhibitor (all in 2% (w/v) BSA-RPMI), or 2% (w/v) BSA-RPMI. Cells located on the bridge between the square depressions were then filmed using the methods of Ochsner, S. A., et al., Disrupted function of tumor necrosis factor-alpha-stimulated gene 6 blocks cumulus cell-oocyte complex expansion. Endocrinology, 2003. 144(10): p. 4376-84, incorporated in material part by reference herein, using a 10× objective for 1 hour at 37° C. in a humidified 5% CO2 incubator. The displacement of at least 10 randomly-chosen cells per experiment was measured over periods of 10 minutes. Cell tracking and track analysis were performed according to the methods of Phillips, J. E. and R. H. Gomer, A secreted protein is an endogenous chemorepellant in Dictyostelium discoideum. Proc Natl Acad Sci U S A, 2012. 109(27): p. 10990 - 10996, incorporated in material part by reference herein, with the exception that videos of an hour in length were processed into 10 minute segments to yield a TIFF stack of 47 images for analysis (with 13-second intervals between images).
DPPIV enzyme activity has been implicated in chemotaxis of hematopoietic stem cells through cleavage of SDF-1. To determine if DPPIV enzyme activity is responsible for neutrophil chemorepulsion, two enzyme inhibitors of DPPIV, Diprotin A and DPPI 1 c HCl, were used in Insall chamber assays along with DPPIV.

Structure (SMILES)	chemorepulsion of neutrophils away from the source of rDPPIV	attraction or repulsion of human neutrophils
CC[C@H](C)[C@H](N)C(=O)N1CCC[C@H]1C(=O)N[C@H](C(=O)O)[C@@H](C)CC [Diprotin A]	significantly reduced	caused no attraction or repulsion
Cl.N#C[C@@H]1CC[C@H](C#N)N1C(=O)CNC1(CO)CCCC1 [DPPI 1 c HCl, DPPI 1 c hydrochloride]	significantly reduced	caused no attraction or repulsion
